The results in this text go back to patent US4675337A, “Non-mutagenic 1,2-disubstituted 4-nitro-imidazoles useful as antiprotozoal agents” (priority 1986, dated 1987).

Data set [1] relates to T. foetus. Nature of the data set: Trichomonal activity in vivo: survival of mice infected i.p. with T. foetus. The settings on record: Tritrichomonas foetus, po, 336 h. As to the method:
Mice were infected through intraperitoneal (I.P.) injection of 1.4×10^7 T. foetus. Each compound disclosed in Table I below was dissolved in an aqueous vehicle, dosed to groups of mice (consisting of five) by gavage. The mice were dosed once per day for four consecutive days with doses ranging from 1-50 mg/kg. The effective dose of the compound, ED50, was calculated from the number of animals surviving a two week period.

Data set [2] concerns T. foetus. Description: Trichomonal activity in vitro. The data set is classed as cell-based. The settings on record: Tritrichomonas foetus, Table I, read-out: ED50 (T. foetus) in vitro.
A further data set relates to Ames Salmonella TA100. The settings on record: for In vivo Safety Index (rel to flagyl): relative increase in safety (1/mutagenicity) at the ED50 dose, relative to flagyl. From the text:
This test involves the addition to a fermentation medium in which is growing a particular organism identified as Ames Salmonella TA100, and measuring the number of mutant organisms formed.

Another data set concerns Rat hepatocytes. Nature of the data set: Single strand DNA breaks in rat hepatocytes (elution). The data set is classed as cell-based. The settings on record: for Relative Elution Slope: relative to control 1.00, ≥3.0 significant. From the text:
*Measure of the extent of DNA strand cleavage. Only relative elution
slopes ≥3.0 are considered significant. Therefore, […]

Data set [3] is described as follows: Cytotoxicity in rat hepatocytes. The data set is classed as cell-based. The settings on record: relative to control cells. From the text: **Relative viability is the number of hepatocytes surviving exposure to
the nitroimidazoles relative to the control cells.

The mark [4] stands for this setting: Table I, gavage once per day for four consecutive days, survival over two weeks, read-out: ED50 (T. foetus) in vivo.
[5] abbreviates: Table III, read-out: T. foetus (ED50) In vivo.
Where [6] appears, read: Table II, relative to ronidazole.
[7] abbreviates: Table II, read-out: T. foetus In Vivo (ED50).

Converted amounts (≈) assume the structure as drawn. Like-named read-outs stand apart in the source and are kept apart here.

With `CCn1cc([N+](=O)[O-])nc1S(C)(=O)=O` [Compound 1], the ED50 with T. foetus [1] (setting [4]) is 10 to 50 mg/kg. In addition, the IC50 in the data set with T. foetus [2] came to 25 µg/mL (≈ 114 µM).

With `CCS(=O)(=O)c1nc([N+](=O)[O-])cn1C` [Compound 2, 1-methyl-2-ethylsulfonyl-4-nitroimidazole], the Mutagenicity with Ames Salmonella TA100 (Table III, Ames TA100 strain) is 0.1 percent ronidazole. The ED50 in the data set on T. foetus [1] (setting [4]) and with T. foetus [1] (setting [5]) was 2 to 5 mg/kg each time. Moreover, the IC50 in the data set on T. foetus [2] amounted to 18.5 µg/mL (≈ 84.4 µM).

`CCCS(=O)(=O)c1nc([N+](=O)[O-])cn1C` [Compound 3, 1-methyl-2-propylsulfonyl-4-nitroimidazole] came in with a Mutagenicity in the data set with Ames Salmonella TA100 (Table III, Ames TA100 strain) of 0.1 percent ronidazole. Moreover, the ED50 with T. foetus [1] (setting [4]) and in the data set on T. foetus [1] (setting [5]) was 5 to 10 mg/kg throughout. Besides, the IC50 in the data set with T. foetus [2] is 27 µg/mL (≈ 116 µM).

Molecule `CC(C)S(=O)(=O)c1nc([N+](=O)[O-])cn1C` [Compound 4, 1-methyl-2-isopropylsulfonyl-4-nitroimidazole] displayed a Mutagenicity in the data set with Ames Salmonella TA100 (Table III, Ames TA100 strain) of 0.1 percent ronidazole. Moreover, the median effective dose (ED50) in the data set with T. foetus [1] (setting [4]) and in the data set with T. foetus [1] (setting [5]) was 5 to 10 mg/kg each time. Further, the IC50 in the data set with T. foetus [2] is 21 µg/mL (≈ 90 µM).

Turning to `Cn1cc([N+](=O)[O-])nc1S(=O)(=O)c1ccccc1` [Compound 5, 1-methyl-2-phenylsulfonyl-4-nitroimidazole], the Mutagenicity with Ames Salmonella TA100 (Table III, Ames TA100 strain) stood at 0.1 percent ronidazole. The ED50 in the data set on T. foetus [1] (setting [4]) and in the data set with T. foetus [1] (setting [5]) was 10 to 25 mg/kg each time. Also, in the data set with T. foetus [2], the IC50 was 17 µg/mL (≈ 63.6 µM).

Regarding `Cn1cc([N+](=O)[O-])nc1[S+](C)[O-]` (stereo not drawn) [Compound 6, 1-methyl-2-methylsulfinyl-4-nitroimidazole], the ED50 with T. foetus [1] (setting [4]) was in the range of 2 to 5 mg/kg. Besides, in the data set with T. foetus [2], the IC50 was determined as 14 µg/mL (≈ 74 µM).

For the molecule `CSc1nc([N+](=O)[O-])cn1C` [Compound 7, 1-methyl-2-methylthio-4-nitroimidazole], the ED50 in the data set with T. foetus [1] (setting [4]) was 5 to 10 mg/kg. For the same molecule, the IC50 in the data set with T. foetus [2] turned out to be 2.1 µg/mL (≈ 12.1 µM).

As for `CCSc1nc([N+](=O)[O-])cn1C` [Compound 8, 1-methyl-2-ethylthio-4-nitroimidazole], the mutants per plate result is recorded as “indistinguishable from background” in the data set on Ames Salmonella TA100 (3 μg per plate), “indistinguishable from background” in the data set on Ames Salmonella TA100 (30 μg per plate), 30 mutants per plate in the data set with Ames Salmonella TA100 (100 μg per plate) and 65 mutants per plate in the data set on Ames Salmonella TA100 (300 μg per plate). Further, the “mutagenicity (conclusion in words)” value with Ames Salmonella TA100 (Ames test) is “non-mutagenic”. In the data set with Ames Salmonella TA100 (Table II), the “In vivo Safety Index (rel to flagyl)” value was greater than 1750. The molecule also showed a Mutagenicity in the data set on Ames Salmonella TA100 (setting [6]) of less than 0.1 percent Ronidazole. Moreover, the ED50 with T. foetus [1] (setting [4]) and with T. foetus [1] (setting [7]) was 2 mg/kg throughout. For the same molecule, the “Relative Elution Slope” value is on record as 1.33 with Rat hepatocytes (0.5 mM), 1.23 in the data set on Rat hepatocytes (1.5 mM) and 1.60 with Rat hepatocytes (5.0 mM). Moreover, in the data set on Rat hepatocytes (up to 5.0 mM), the “significant DNA strand breakage (in words)” value is reported as “did not cause significant DNA strand”. In addition, the IC50 in the data set with T. foetus [2] was 2.3 µg/mL (≈ 12.3 µM). The viability at 500 µM in data set [3] (0.5 mM) turned out to be 107%. For the same molecule, in data set [3] (1.5 mM), the viability at 1500 µM worked out at 105%. The viability at 5000 µM in data set [3] (5.0 mM) is 102%.

With `CCCSc1nc([N+](=O)[O-])cn1C` [Compound 9, 1-methyl-2-propylthio-4-nitroimidazole], in the data set with T. foetus [1] (setting [4]), the ED50 was 5 mg/kg. Also, the IC50 with T. foetus [2] came to 4 µg/mL (≈ 19.9 µM).

For the molecule `CC(C)Sc1nc([N+](=O)[O-])cn1C` [Compound 10, 1-methyl-2-isopropylthio-4-nitroimidazole], the ED50 in the data set with T. foetus [1] (setting [4]) is 10 to 50 mg/kg. In the data set on T. foetus [2], the IC50 turned out to be 4 µg/mL (≈ 19.9 µM).

As to `Cc1ncc([N+](=O)[O-])n1CCO` [Flagyl, 1-(2-hydroxyethyl)-2-methyl-5-nitro-imidazole, reference compound], the ED50 is 25 to 50 mg/kg with T. foetus [1] (setting [4]), 50 mg/kg in the data set with T. foetus [1] (setting [7]) and 25 to 50 mg/kg in the data set on T. foetus [1] (setting [5]). In addition, the “DNA strand breaks (in words)” value in the data set on Rat hepatocytes (at both 3.0 and 10.0 mM) is given as “caused breaks”. For the same molecule, the IC50 in the data set on T. foetus [2] stood at 0.4 µg/mL (≈ 2.34 µM). Besides, in data set [3] (3.0 mM), the viability at 3000 µM is 107%. Besides, the viability at 10000 µM in data set [3] (10.0 mM) turned out to be 101%.

For `Cn1c([N+](=O)[O-])cnc1COC(N)=O` [Ronidazole, 1-methyl-2-[(carbamoyloxy)methyl]-5-nitroimidazole, reference compound], the figures for the mutants per plate in the data set on Ames Salmonella TA100 (3 μg per plate) and with Ames Salmonella TA100 (30 μg per plate) were 358 mutants per plate and 2682 mutants per plate, respectively. Moreover, the “In vivo Safety Index (rel to flagyl)” value in the data set with Ames Salmonella TA100 (Table II) worked out at 0.7. Also, the Mutagenicity with Ames Salmonella TA100 (setting [6]) turned out to be 100 percent Ronidazole; with Ames Salmonella TA100 (Table III, Ames TA100 strain) it was 100.0 percent ronidazole. The ED50 in the data set with T. foetus [1] (setting [7]) lay within 2 to 5 mg/kg; in the data set on T. foetus [1] (setting [5]), 5 to 10 mg/kg.

By ED50 is commonly meant the dose at which the effect has come halfway, by size or by number of responders. A word on the viability: it is a read-out of living cells in per cent, often relative to untreated cells.
